# Source: ChEMBL document CHEMBL1157539, “Thousands of chemical starting points for antimalarial lead identification” (Nature, 2010)
# Test system: Plasmodium falciparum
# Assay: GSK_TCMDC: Inhibition of Plasmodium falciparum 3D7 in whole erythrocytes, using parasite LDH activity as an index of growth.
# Type: functional, organism-based
# Details: Plasmodium falciparum, 3D7
row,Structure (SMILES),XC50 [nM]
1,O=C(Cn1c(CCc2cccc(F)c2F)nc(=O)c2ccccc21)N(CCCN1CCCC1)Cc1ccc(-c2ccc(C(F)(F)F)cc2)cc1,941
2,CCN(CC)CCN(Cc1ccc(-c2ccc(C(F)(F)F)cc2)cc1)C(=O)Cn1c(CCc2c(F)cccc2F)nc(=O)c2ccccc21,637
3,CC(C)(C)NCCN(Cc1ccc(-c2ccc(C(F)(F)F)cc2)cc1)C(=O)Cn1c(SCc2ccc(F)cc2)nc(=O)c2c1CCC2,860
4,N=C(N)Nc1ccc(Cc2ccc(NC(=N)N)cc2)cc1,255
5,COc1ccc(Nc2nccc(NCCNC(=O)Nc3ccccc3F)n2)cc1,1320
6,CC1=C(C(=O)Nc2cc3cn[nH]c3cc2F)C(c2cccc(O)c2F)CC(=O)N1 (stereo not given),629
7,C=CCN1C(=O)C(=Cc2cc(Br)ccc2O)SC1=Nc1ccccc1,900
8,C#CCCC(=O)Nc1cccc(-c2cccc(-c3nc4cc(C(F)(F)F)ccc4[nH]3)c2)c1,805
9,CCCC(C)Nc1nc(C)cc(NCCC(=O)Nc2ccccc2)n1 (stereo not given),959
10,O=C(Cc1c[nH]cn1)Nc1ccc(-c2cccc(-c3nc4cc(F)ccc4[nH]3)c2)cc1,797
11,COc1ccc(NC(=O)c2cn(-c3ccc(C(C)(C)C)cc3)nc2C)cc1N1CCN(C)CC1,949
12,CCOc1cc(C)c(C2CCN(CCCCNC(=O)c3ccc(NC(=O)c4ccc(Cl)cc4)cc3)CC2)cc1C,739
13,O=C(NC1CCCCC1)C1CCCN(C(=O)c2ccc(O)c(-c3ccc(Cl)c(Cl)c3)c2)C1 (stereo not given),903
14,Clc1ccc2c(NCCc3ccccn3)ccnc2c1,832
15,CC(C)c1cc2c(ccc3nc(N)nc(N)c32)o1,85.7
16,COc1cc(-c2cc(-c3ccc(S(C)(=O)=O)cc3)cnc2N)ccc1O,101
17,COc1c(C2CCN(CCCCNC(=O)c3ccc(-c4ccc(NC(=O)C(F)(F)F)cc4)cc3)CC2)ccc2c1CCCC2,1000
18,CCN(CCCN1CCCCC1)c1cc(C)nc(Nc2cccc3c2CCCC3)n1,1030
19,Cc1c(C)n(C2CCCCC2)c2ncnc(OC3CCN(CC(=O)N4CCCC4)CC3)c12,1450
20,Cc1cccc2nc(-c3cccc(-c4cccc(CNCCN5CCNCC5)c4)c3)[nH]c12,970
21,C#C[C@H]1O[C@@H](n2cnc3c(Nc4cc(Br)cc(C(F)(F)F)c4)ncnc32)[C@H](O)[C@@H]1O,1030
22,CC(=O)Nc1ccc(S(=O)(=O)Nc2ccc(Nc3nc(C)cc(N(C)C)n3)cc2)cc1,1160
23,CC(C)c1cn2c3c(cc(C(=O)N[C@@H](Cc4ccccc4)[C@H](O)CNC4CCCCC4)cc13)N(C)S(=O)(=O)CC2,30
24,O=C(Nc1ccc2oc(-c3ccc(Br)cc3)nc2c1)c1ccc([N+](=O)[O-])o1,968

row,Structure (SMILES),XC50 [nM]
1,NC1CCN(CCc2ccc(NS(=O)(=O)c3cccc4ccccc34)cc2)CC1,1700
2,Cc1cccc2nc(-c3ccc(-c4cccc(CN5CCCC5CN)c4)cc3)[nH]c12 (stereo not given),914
3,Cc1cc(Nc2ccc(O)cc2)nc2cc(O)ccc12,756
4,Cc1ccc(C)c(Sc2ccc(NC(=O)CN3CCN(C(=O)c4ccco4)CC3)cc2)c1,716
5,CC(=O)Nc1nc(C(=O)Nc2ccc(-c3cccc(-c4nc5cccc(C)c5[nH]4)c3)cc2)cs1,232
6,CCN(CC)CCCCNc1cc(-c2[nH]c(-c3c(Cl)cccc3Cl)nc2-c2ccc3cc(OC)ccc3c2)ccn1,958
7,O=C(Cc1cccc(O)c1)Nc1ccc(-c2cccc(-c3nc4cc(C(F)(F)F)ccc4[nH]3)c2)cc1,983
8,Cc1cc2ccccc2n1CC(=O)N1CC(C(=O)N2CCCCC2)Oc2ccccc21 (stereo not given),899
9,COc1ccc(C(=O)CCC(=O)N(CCSC(C)(C)C)Cc2ccc(-c3ccc(CNCCc4ccc(S(C)(=O)=O)cc4)cn3)cc2)cc1F,627
10,COc1ccc(CNCc2ccsc2)cc1-c1ccc(S(=O)(=O)NCCN2CCCC2)s1,766
11,O=C(/C=C/c1ccc(Cl)c(Cl)c1)N1CCN(C(=O)Nc2ccc(F)c(Cl)c2)CC1,724
12,O=C(NC1CCN(Cc2ccccc2)CC1)c1ccc(-c2nc3cc4ccccc4cc3[nH]2)s1,601
13,COCCNCc1cccc(-c2cc3nccc(Nc4ccc(Oc5ccccc5)cc4)c3cc2Cl)c1,1380
14,Cc1ccc2cc(NCCCCCCCCON3C(N)=NC(N)=NC34CCCCC4)ccc2n1,163
15,COc1cc2nc(N3CCC(CNC(=O)c4ccc(-c5cccc(C#N)c5)cc4)CC3)nc(N)c2cc1OC,139
16,CNCCNCc1ccc(-c2ccc(-c3nc4cccc(C)c4[nH]3)cc2)cc1,670
17,CS(=O)(=O)CCNCc1cccc(-c2ccc3c(Nc4cc(O)c(Cl)cc4F)ccnc3c2)c1,254
18,COc1ccc2nccc([C@@H](O)CN3CCC(NC(=O)c4cccc(C(=O)c5ccccc5)c4)CC3)c2c1,685
19,O=C(/C=C/c1ccc(Cl)c(Cl)c1)N1CCC(CN2CCC(c3cn(CC(=O)N4CCCCC4)c4ccccc34)CC2)CC1,750
20,COc1cc(Br)c(NC(=O)Nc2ccc(C(F)(F)F)c(O[C@@H]3CCN(C)C3)c2)cc1OC,626
21,NC(=O)c1cccc(Nc2nccc(Nc3ccc(Oc4c(Cl)cccc4Cl)c(Cl)c3)n2)c1,871
22,CC(C)c1ccc(NC(=O)c2ccc(C(=O)NC3CCN(CC4CCCCC4)CC3)cc2)cc1,645
23,O=C(Nc1cccc(-c2ccc(CN3CCCC3)cc2)c1)c1cccc(F)c1,783
24,COc1ccc(NC(=O)[C@H](Cc2ccccc2)Nc2cc(C)nc(NCCc3cccnc3)n2)cc1,760

row,Structure (SMILES),XC50 [nM]
1,CS(=O)(=O)Cc1cccc(Nc2ncc(Cl)c(Nc3cccnc3C(N)=O)n2)c1,168
2,O=c1cc(NCCCNCc2ccc(Cl)c(Cl)c2)[nH]c2cc(F)cc(F)c12,675
3,Cn1cnc(CCNC(=O)c2ccc(-c3cccc(-c4nc5ccccc5[nH]4)c3)cc2)c1,1100
4,CC(C)(C)c1ccc(NC(=O)c2ccc(CN3CCCN(Cc4ccsc4)CC3)cc2)cc1,716
5,O=C(Cc1cccc2ccccc12)NC1CCN(c2ccnc3cc(Cl)ccc23)C1 (stereo not given),248
6,O=C(Nc1ccc(-c2csc3nccn23)cc1)c1ccc(Cl)cc1,584
7,CCOC(=O)c1ccc(N2CCN(CCCNC(=O)/C(=C/C=C/c3cc4cc(Cl)c(Cl)cc4[nH]3)OC)CC2)cc1,845
8,O=C(C=Cc1ccc(Cl)c(Cl)c1)NCCCCCN1CCCC(CCCNC(=O)c2cccs2)C1 (stereo not given),1300
9,CCC1(C)N=C(N)N=C(N)N1c1ccccc1 (stereo not given),792
10,CC(C)CCNCc1ccc(OCc2ccccc2COc2ccc(CNCCC(C)C)cc2I)c(I)c1,425
11,O=C(Nc1ccc(-c2cccc(-c3nc4cc(C(F)(F)F)ccc4[nH]3)c2)cc1)c1ccc(=O)[nH]n1,1070
12,CC(C)COc1ccc(Cl)cc1Cc1nc(-c2nc3ccc(CN4CCCC4)cc3[nH]2)co1,727
13,Cc1ccc(-c2cnc(N)c3cc(-c4ccnc(N)n4)ccc23)cc1,808
14,CN(C)CC(O)COc1ccc(Nc2ncc([N+](=O)[O-])c(Nc3ccccc3O)n2)cc1 (stereo not given),762
15,COc1ccc(NC(=O)c2ccc(-c3cc(NC(=O)c4ccnc(N5CCCC5)c4)ccc3C)s2)cc1N1CCN(C)CC1,245
16,O=C(Nc1cccc(CN2CCCN(Cc3cccc(O)c3)CC2)c1)c1ccc2ccccc2c1,786
17,Cc1cc(CNCC2CCC(CNCCCc3ccccc3)CC2)ccc1O (stereo not given),871
18,COc1ccc2ncc(F)c([C@H](O)CN3CCC(NCc4ccc5c(c4)NC(=O)CS5)CC3)c2c1,185
19,Cn1cncc1CCN(Cc1ccc(-c2ccc(C(F)(F)F)cc2)cc1)C(=O)Cn1c(SCc2cccc(F)c2F)cc(=O)c2ccccc21,990
20,CCCCNC(=O)[C@H](CC1CCCCC1)NC(=O)c1ccc(O)c(-c2ccc(Cl)c(Cl)c2)c1,164
21,CCOC(=O)c1cn(CC)c2cc(N(C)CCc3ccc(OC)c(OC)c3)c(F)cc2c1=O,425
22,Cc1ccc(C(CC(=O)Nc2nccs2)c2ccc(OC(C)C)cc2)cc1 (stereo not given),479
23,Cc1ccc2[nH]c(C)cc(=NN=Cc3ccccc3Cl)c2c1,752
24,CC(CCCCCC(=O)Nc1ccc(CC(C)NCCc2cccc(Cl)c2)cc1)NCCc1cccc(Cl)c1 (stereo not given),948

row,Structure (SMILES),XC50 [nM]
1,CC(C)Nc1cc(C(=O)N[C@@H](Cc2ccccc2)[C@H](O)CNC2CCCCC2)cc(N2CCCCS2(=O)=O)c1,103
2,CCOc1ccccc1C1CCN(CCCCNC(=O)c2ccc(NC(=O)c3ccc(Cl)cc3)cc2)CC1,846
3,CCCCCCCCCn1c(NCc2cc(Cl)ccc2O)nc2ccccc21,825
4,CCc1c(C(=O)NC2CCC(N3CCC(c4ccccc4C)CC3)CC2)[nH]c2ccc(Br)cc12 (stereo not given),928
5,CCCN1CCN(Cc2ccc(-c3ccc(-c4nc5ccccc5[nH]4)s3)cc2)CC1,611
6,CCCCCCCCn1c2c(c(=N)c3c1CCC3)CCCC2,109
7,O=C(Nc1ccc(S(=O)(=O)N2CCCCC2)cc1)c1cc(-c2cc(Cl)ccc2O)n[nH]1,811
8,Cc1ccc(NC(=O)c2cn(-c3ccccc3)nc2-c2ccc(F)cc2)cc1[N+](=O)[O-],1000
9,Cc1cccc2nc(-c3ccc(-c4cccc(NC(=O)Nc5ccsc5)c4)s3)[nH]c12,542
10,CCC(C)OC(=O)C1=C(C)NC2=C(C(=O)CC(c3ccc(OC)c(OC)c3)C2)C1c1cccc(O)c1 (stereo not given),193
11,CNc1ccc(CNCc2ccc(-c3ccc(-c4nc5cc(F)ccc5[nH]4)cc3)cc2)cc1,210
12,Cc1onc(-c2ccccc2)c1C(=O)Nc1nc(-c2ccccn2)nc2ccsc12,685
13,CC(=O)Nc1ccc(OCCN(CC(F)(F)F)c2ccc(C#N)cc2C(F)(F)F)cc1,767
14,COc1cccc(C(=O)NC(C=Cc2ccccc2)c2cc(Cl)c3cccnc3c2O)c1 (stereo not given),859
15,CC(C)(C)c1ccc(S(=O)(=O)Nc2ccccc2Cn2nc(N3CCNCC3)ccc2=O)cc1,846
16,Cc1cccc2nc(-c3cccc(-c4cccc(NC(=O)c5cn(C)c(=O)n5C)c4)c3)[nH]c12,505
17,Cc1cc(O)c(C(C)C)cc1C1(c2cc(C(C)C)c(O)cc2C)OC(=O)c2ccccc21,871
18,Nc1c(-c2ccc(C(=O)NCCNCc3ccccc3)cc2)cnn1-c1ccc(C(F)(F)F)cc1,1160
19,CC(C)Cc1nc(N2CCOCC2)c2nnn(Cc3ccccc3)c2n1,508
20,CN1CCC(NCc2cccc(-c3ccc(S(=O)(=O)NCCN4CCCC4)c(F)c3)c2)CC1,1010
21,Cc1ccc(C2CCN(CCCCNC(=O)c3ccc(NC(=O)c4ccc(Cl)cc4)cc3)CC2)c(OCC2CC2)c1,887
22,O=C(Cc1ccc(F)cc1)NC1CCN(c2ccnc3cc(Cl)ccc23)C1 (stereo not given),484
23,Cc1ccc(/C=C2/SC(=Nc3ccccc3)NC2=O)c(C)c1,557
